Experimental data published in patent EP4722212A1, “NOVEL COMPOUND FOR INHIBITING PROTEIN KINASES AND PHARMACEUTICAL COMPOSITION COMPRISING SAME” (Magicbullettherapeutics Co., Ltd., priority 2023, dated 2024).
Read-outs that look alike come from different tables or passages of the source.

Assays:
Assay in all cases: Kinase panel
Type in all cases: biochemical
ERN1/IRE1 = ERN1/IRE1 (Homo sapiens, UniProt O75460); conditions: ERN1/IRE1, 1 µM; read-out: residual enzyme activity
Procedure, shortened: (§1)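 Single-point screen at 1 µM in a biochemical kinase panel; readout is % residual enzyme activity; hit cut-off ≤40% remaining (≥60% inhibited).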

MUSK = MUSK (Homo sapiens, UniProt O15146); conditions: read-out: residual enzyme activity
MUSK, sequence (O15146 24-869, species assumed): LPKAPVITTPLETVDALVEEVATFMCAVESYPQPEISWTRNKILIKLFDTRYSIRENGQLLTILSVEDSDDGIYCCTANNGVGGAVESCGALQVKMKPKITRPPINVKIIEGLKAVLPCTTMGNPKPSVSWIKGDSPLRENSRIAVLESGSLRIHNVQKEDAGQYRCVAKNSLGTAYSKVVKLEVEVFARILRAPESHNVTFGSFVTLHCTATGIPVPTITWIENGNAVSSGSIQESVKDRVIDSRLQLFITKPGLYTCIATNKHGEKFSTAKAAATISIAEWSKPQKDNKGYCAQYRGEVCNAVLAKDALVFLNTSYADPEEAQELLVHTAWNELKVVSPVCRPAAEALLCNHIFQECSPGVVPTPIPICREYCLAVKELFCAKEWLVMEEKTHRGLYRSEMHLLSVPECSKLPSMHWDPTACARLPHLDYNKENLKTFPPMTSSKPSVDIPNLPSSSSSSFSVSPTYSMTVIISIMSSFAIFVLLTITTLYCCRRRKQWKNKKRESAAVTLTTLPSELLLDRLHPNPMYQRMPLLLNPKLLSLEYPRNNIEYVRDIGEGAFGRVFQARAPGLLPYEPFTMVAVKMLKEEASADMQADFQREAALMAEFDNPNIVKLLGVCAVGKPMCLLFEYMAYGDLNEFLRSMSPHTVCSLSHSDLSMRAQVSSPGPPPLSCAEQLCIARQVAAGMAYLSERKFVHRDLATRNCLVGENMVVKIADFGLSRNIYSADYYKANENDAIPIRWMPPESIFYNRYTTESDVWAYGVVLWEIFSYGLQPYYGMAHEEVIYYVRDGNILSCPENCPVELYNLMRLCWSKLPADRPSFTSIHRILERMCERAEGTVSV
Procedure, shortened: as §1

TNIK = TNIK (Homo sapiens, UniProt Q9UKE5); conditions: read-out: residual enzyme activity
Procedure, shortened: as §1

TEC = TEC (Homo sapiens, UniProt P42680); conditions: read-out: residual enzyme activity
Procedure, shortened: as §1

MKK7 = MKK7 (Homo sapiens, UniProt O14733); conditions: MKK7, 1 µM; read-out: residual enzyme activity
Procedure, shortened: as §1

RAF1 = RAF1 (Homo sapiens, UniProt P04049); conditions: RAF1, 1 µM; read-out: residual enzyme activity
Procedure, shortened: as §1

BLK = BLK (Homo sapiens, UniProt P51451); conditions: read-out: residual enzyme activity
Procedure, shortened: as §1

DAPK1 = DAPK1 (Homo sapiens, UniProt P53355); conditions: DAPK1, 1 µM; read-out: residual enzyme activity
Procedure, shortened: as §1

HGK/MAP4K4 = HGK/MAP4K4 (Homo sapiens, UniProt O95819); conditions: HGK/MAP4K4, 1 µM; read-out: residual enzyme activity
Procedure, shortened: as §1

EPHA4 = EPHA4 (Homo sapiens, UniProt P54764); conditions: EPHA4, 1 µM; read-out: residual enzyme activity
Procedure, shortened: as §1

MLK4 = MLK4 (Homo sapiens, UniProt Q5TCX8); conditions: MLK4, 1 µM; read-out: residual enzyme activity
Procedure, shortened: as §1

CDK18/CYCLIN Y (PCTK3) = CDK18/CYCLIN Y (PCTK3) (Homo sapiens, UniProt Q07002); conditions: read-out: residual enzyme activity
Procedure, shortened: as §1

ASK1/MAP3K5 = ASK1/MAP3K5 (Homo sapiens, UniProt Q99683); conditions: ASK1/MAP3K5, 1 µM; read-out: residual enzyme activity
ASK1/MAP3K5, sequence (Q99683 whole entry): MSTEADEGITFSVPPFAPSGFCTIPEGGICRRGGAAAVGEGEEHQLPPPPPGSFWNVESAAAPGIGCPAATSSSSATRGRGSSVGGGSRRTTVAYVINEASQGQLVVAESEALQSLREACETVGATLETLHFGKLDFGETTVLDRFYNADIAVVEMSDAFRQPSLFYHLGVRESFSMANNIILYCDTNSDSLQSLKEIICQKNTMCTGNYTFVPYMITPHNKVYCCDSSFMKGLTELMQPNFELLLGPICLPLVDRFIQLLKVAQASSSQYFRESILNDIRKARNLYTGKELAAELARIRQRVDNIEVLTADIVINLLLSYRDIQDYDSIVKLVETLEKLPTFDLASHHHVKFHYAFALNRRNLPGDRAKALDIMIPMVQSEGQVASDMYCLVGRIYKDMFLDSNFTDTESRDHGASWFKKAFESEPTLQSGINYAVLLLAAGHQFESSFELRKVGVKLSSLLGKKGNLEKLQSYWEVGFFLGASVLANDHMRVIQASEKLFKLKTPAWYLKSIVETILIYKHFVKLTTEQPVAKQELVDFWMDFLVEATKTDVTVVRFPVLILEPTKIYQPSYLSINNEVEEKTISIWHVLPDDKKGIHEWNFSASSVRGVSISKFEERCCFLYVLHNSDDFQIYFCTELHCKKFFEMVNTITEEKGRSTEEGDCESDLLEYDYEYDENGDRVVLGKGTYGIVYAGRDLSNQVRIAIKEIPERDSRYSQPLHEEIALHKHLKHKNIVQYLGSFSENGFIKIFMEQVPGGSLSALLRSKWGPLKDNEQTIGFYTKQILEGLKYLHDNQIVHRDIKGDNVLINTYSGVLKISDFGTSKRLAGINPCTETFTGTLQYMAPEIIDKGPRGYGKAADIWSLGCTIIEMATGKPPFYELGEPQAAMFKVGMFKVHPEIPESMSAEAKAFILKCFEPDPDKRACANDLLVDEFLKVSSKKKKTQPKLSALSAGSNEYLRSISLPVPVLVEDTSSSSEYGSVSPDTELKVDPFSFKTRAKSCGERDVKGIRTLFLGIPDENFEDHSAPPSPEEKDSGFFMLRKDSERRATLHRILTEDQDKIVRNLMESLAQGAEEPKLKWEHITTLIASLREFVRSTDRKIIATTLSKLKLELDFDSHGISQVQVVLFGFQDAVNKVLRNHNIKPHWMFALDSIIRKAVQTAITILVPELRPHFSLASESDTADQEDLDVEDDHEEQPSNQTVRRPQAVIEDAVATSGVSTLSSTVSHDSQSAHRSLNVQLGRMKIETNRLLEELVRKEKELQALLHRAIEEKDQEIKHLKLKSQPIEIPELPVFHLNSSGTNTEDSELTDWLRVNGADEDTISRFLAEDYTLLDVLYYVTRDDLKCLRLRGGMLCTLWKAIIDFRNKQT
Procedure, shortened: as §1

TYK1/LTK = TYK1/LTK (Homo sapiens, UniProt P29376); conditions: read-out: residual enzyme activity
Procedure, shortened: as §1

IRAK1 = IRAK1 (Homo sapiens, UniProt P51617); conditions: IRAK1, 1 µM; read-out: residual enzyme activity
Procedure, shortened: as §1

TSSK3/STK22C = TSSK3/STK22C (Homo sapiens, UniProt Q96PN8); conditions: read-out: residual enzyme activity
Procedure, shortened: as §1

RIPK5 = RIPK5 (Homo sapiens, UniProt Q6XUX3); conditions: RIPK5, 1 µM; read-out: residual enzyme activity
Procedure, shortened: as §1

IKKA/CHUK = IKKA/CHUK (Homo sapiens, UniProt O15111); conditions: read-out: residual enzyme activity
Procedure, shortened: as §1

DYRK2 = DYRK2 (Homo sapiens, UniProt Q92630); conditions: DYRK2, 1 µM; read-out: residual enzyme activity
DYRK2, sequence (Q92630 whole entry, species assumed): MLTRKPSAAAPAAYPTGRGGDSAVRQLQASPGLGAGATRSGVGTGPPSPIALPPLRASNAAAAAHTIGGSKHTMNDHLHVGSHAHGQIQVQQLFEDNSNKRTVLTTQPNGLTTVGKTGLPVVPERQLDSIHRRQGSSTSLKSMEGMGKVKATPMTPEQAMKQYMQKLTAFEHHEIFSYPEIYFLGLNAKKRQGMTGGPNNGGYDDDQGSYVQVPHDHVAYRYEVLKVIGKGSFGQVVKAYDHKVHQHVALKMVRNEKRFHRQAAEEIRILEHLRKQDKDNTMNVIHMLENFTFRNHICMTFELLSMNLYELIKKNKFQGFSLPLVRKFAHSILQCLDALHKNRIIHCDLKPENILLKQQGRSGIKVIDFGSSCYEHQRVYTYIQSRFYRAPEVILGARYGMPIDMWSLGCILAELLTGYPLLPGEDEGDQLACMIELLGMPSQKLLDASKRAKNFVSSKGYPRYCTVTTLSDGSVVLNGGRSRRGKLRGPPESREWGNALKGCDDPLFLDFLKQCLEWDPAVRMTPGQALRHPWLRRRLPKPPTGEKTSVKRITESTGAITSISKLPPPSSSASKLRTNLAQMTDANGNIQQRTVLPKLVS
Procedure, shortened: as §1

MEKK6 = MEKK6 (Homo sapiens, UniProt O95382); conditions: MEKK6, 1 µM; read-out: residual enzyme activity
MEKK6, sequence (O95382 whole entry, species assumed): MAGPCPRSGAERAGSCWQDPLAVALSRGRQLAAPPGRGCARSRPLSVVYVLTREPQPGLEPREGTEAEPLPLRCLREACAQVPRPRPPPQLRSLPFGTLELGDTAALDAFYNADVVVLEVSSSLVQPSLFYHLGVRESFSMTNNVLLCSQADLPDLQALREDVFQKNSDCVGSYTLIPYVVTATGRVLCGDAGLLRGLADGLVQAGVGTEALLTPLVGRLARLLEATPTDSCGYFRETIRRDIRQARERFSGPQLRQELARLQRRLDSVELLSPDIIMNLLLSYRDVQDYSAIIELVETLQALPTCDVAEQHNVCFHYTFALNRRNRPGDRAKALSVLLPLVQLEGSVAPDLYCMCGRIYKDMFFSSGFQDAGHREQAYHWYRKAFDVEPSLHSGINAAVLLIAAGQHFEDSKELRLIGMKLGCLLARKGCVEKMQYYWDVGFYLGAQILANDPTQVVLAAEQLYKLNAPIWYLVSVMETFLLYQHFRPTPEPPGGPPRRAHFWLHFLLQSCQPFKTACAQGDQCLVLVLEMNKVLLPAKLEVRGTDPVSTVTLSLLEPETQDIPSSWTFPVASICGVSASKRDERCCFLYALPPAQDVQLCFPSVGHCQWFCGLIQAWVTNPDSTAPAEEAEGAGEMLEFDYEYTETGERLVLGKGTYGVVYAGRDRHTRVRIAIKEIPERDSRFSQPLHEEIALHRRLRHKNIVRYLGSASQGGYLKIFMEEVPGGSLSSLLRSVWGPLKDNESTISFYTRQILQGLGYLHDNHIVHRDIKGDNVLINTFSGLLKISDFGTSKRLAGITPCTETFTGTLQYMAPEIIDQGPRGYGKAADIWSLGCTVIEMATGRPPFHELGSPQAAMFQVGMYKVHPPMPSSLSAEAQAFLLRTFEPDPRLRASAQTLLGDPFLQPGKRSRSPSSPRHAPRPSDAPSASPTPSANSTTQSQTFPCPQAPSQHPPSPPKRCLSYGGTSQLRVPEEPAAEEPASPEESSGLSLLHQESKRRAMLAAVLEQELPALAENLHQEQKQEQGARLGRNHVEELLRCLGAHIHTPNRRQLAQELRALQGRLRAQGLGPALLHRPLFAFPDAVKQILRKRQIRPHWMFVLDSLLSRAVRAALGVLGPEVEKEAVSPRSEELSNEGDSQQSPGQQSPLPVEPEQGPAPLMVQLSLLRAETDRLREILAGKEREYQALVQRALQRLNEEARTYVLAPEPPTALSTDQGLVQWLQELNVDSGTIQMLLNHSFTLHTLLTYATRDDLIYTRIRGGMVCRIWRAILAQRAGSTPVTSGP
Procedure, shortened: as §1

CLK1 = CLK1 (Homo sapiens, UniProt P49759); conditions: CLK1, 1 µM; read-out: residual enzyme activity
Procedure, shortened: as §1

C-MER = C-MER (Homo sapiens, UniProt Q12866); conditions: read-out: residual enzyme activity
Procedure, shortened: as §1

STK16 = STK16 (Homo sapiens, UniProt O75716); conditions: STK16, 1 µM; read-out: residual enzyme activity
Procedure, shortened: as §1

WNK2 = WNK2 (Homo sapiens, UniProt Q9Y3S1); conditions: WNK2, 1 µM; read-out: residual enzyme activity
Procedure, shortened: as §1

PKG2/PRKG2 = PKG2/PRKG2 (Homo sapiens, UniProt Q13237); conditions: PKG2/PRKG2, 1 µM; read-out: residual enzyme activity
Procedure, shortened: as §1

ALK6/BMPR1B = ALK6/BMPR1B (Homo sapiens, UniProt O00238); conditions: read-out: residual enzyme activity
Procedure, shortened: as §1

SNRK = SNRK (Homo sapiens, UniProt Q9NRH2); conditions: read-out: residual enzyme activity
SNRK, sequence (Q9NRH2 whole entry, species assumed): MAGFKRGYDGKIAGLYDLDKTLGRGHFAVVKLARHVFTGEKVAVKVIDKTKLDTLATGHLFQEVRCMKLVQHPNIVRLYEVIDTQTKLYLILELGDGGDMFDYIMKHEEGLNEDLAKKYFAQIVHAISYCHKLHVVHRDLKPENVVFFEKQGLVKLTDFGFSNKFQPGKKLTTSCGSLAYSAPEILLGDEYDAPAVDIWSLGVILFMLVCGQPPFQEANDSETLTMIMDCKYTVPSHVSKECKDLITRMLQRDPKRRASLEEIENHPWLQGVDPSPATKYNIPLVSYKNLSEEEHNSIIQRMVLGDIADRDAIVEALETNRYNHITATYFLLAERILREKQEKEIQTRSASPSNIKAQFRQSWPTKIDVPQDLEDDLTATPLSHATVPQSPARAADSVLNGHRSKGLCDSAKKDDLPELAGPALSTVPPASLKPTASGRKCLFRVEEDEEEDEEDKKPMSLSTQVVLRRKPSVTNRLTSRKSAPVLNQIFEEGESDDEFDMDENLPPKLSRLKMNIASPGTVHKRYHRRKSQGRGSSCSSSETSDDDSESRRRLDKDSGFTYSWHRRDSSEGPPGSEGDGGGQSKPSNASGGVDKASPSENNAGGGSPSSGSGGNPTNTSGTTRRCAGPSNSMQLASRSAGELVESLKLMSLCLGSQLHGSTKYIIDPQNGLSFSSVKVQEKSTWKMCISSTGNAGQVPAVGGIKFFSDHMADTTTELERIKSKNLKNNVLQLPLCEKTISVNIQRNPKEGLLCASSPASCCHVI
Procedure, shortened: as §1

PDK1/PDPK1 = PDK1/PDPK1 (Homo sapiens, UniProt O15530); conditions: PDK1/PDPK1, 1 µM; read-out: residual enzyme activity
Procedure, shortened: as §1

COT1/MAP3K8 = COT1/MAP3K8 (Homo sapiens, UniProt P41279); conditions: COT1/MAP3K8, 1 µM; read-out: residual enzyme activity
Procedure, shortened: as §1

MRCKB/CDC42BPB = MRCKB/CDC42BPB (Homo sapiens, UniProt Q9Y5S2); conditions: read-out: residual enzyme activity
Procedure, shortened: as §1

CDK5/P25 = CDK5/P25 (Homo sapiens, UniProt Q00535); conditions: CDK5/P25, 1 µM; read-out: residual enzyme activity
Procedure, shortened: as §1

SRPK2 = SRPK2 (Homo sapiens, UniProt P78362); conditions: SRPK2, 1 µM; read-out: residual enzyme activity
Procedure, shortened: as §1

MST2/STK3 = MST2/STK3 (Homo sapiens, UniProt Q13188); conditions: MST2/STK3, 1 µM; read-out: residual enzyme activity
Procedure, shortened: as §1

CDK9/CYCLIN T1 = CDK9/CYCLIN T1 (Homo sapiens, UniProt P50750); conditions: CDK9/cyclin T1, 1 µM; read-out: residual enzyme activity
Procedure, shortened: as §1

| SMILES | remaining activity at 1 µM (ERN1/IRE1) [%] | remaining activity at 1 µM (MUSK) [%] | remaining activity at 1 µM (TNIK) [%] | remaining activity at 1 µM (TEC) [%] | remaining activity at 1 µM (MKK7) [%] | remaining activity at 1 µM (RAF1) [%] | remaining activity at 1 µM (BLK) [%] | remaining activity at 1 µM (DAPK1) [%] | remaining activity at 1 µM (HGK/MAP4K4) [%] | remaining activity at 1 µM (EPHA4) [%] | remaining activity at 1 µM (MLK4) [%] | remaining activity at 1 µM (CDK18/CYCLIN Y (PCTK3)) [%] | remaining activity at 1 µM (ASK1/MAP3K5) [%] | remaining activity at 1 µM (TYK1/LTK) [%] | remaining activity at 1 µM (IRAK1) [%] | remaining activity at 1 µM (TSSK3/STK22C) [%] | remaining activity at 1 µM (RIPK5) [%] | remaining activity at 1 µM (IKKA/CHUK) [%] | remaining activity at 1 µM (DYRK2) [%] | remaining activity at 1 µM (MEKK6) [%] | further results |
| --- | --- | --- | --- | --- | --- | --- | --- | --- | --- | --- | --- | --- | --- | --- | --- | --- | --- | --- | --- | --- | --- |
| Cc1cn(-c2cc(C(=O)Nc3ccc(C)c(N4Cc5cnc(NC6CC6)nc5C5(CC5)C4=O)c3)cc(C(F)(F)F)c2)cn1 [Compound 8, N-(3-(2'-(cyclopropylamino)-7'-oxo-5'H-spiro[cyclopropane-1,8'-pyrido[4,3-d]pyrimidine]-6'(7'H)-yl)-4-methylphenyl)-3-(4-methyl-1H-imidazol-1-yl)-5-(trifluoromethyl)benzamide] | > 40 | ≤ 40 | ≤ 40 | ≤ 40 | > 40 | ≤ 40 | ≤ 40 | > 40 | ≤ 40 | ≤ 40 | > 40 | > 40 | > 40 | ≤ 40 | > 40 | > 40 | > 40 | > 40 | > 40 | > 40 | remaining activity at 1 µM (CLK1): > 40%; remaining activity at 1 µM (C-MER; C-MER): > 40%; remaining activity at 1 µM (STK16): > 40%; remaining activity at 1 µM (WNK2): > 40%; remaining activity at 1 µM (PKG2/PRKG2): > 40%; remaining activity at 1 µM (ALK6/BMPR1B): > 40%; remaining activity at 1 µM (SNRK): > 40%; remaining activity at 1 µM (PDK1/PDPK1): > 40%; remaining activity at 1 µM (COT1/MAP3K8): > 40%; remaining activity at 1 µM (MRCKB/CDC42BPB): > 40%; remaining activity at 1 µM (CDK5/P25): > 40%; remaining activity at 1 µM (SRPK2): > 40%; remaining activity at 1 µM (MST2/STK3): > 40%; remaining activity at 1 µM (CDK9/CYCLIN T1): > 40% |
| Cc1ccc(Nc2ncc3c(n2)C2(CC2)C(=O)N(c2cc(NC(=O)c4cccc(C(F)(F)F)c4)ccc2C)C3)cn1 [Compound 51, N-(4-methyl-3-(2'-((6-methylpyridin-3-yl)amino)-7'-oxo-5'H-spiro[cyclopropane-1,8'-pyrido[4,3-d]pyrimidine]-6'(7'H)-yl)phenyl)-3-(trifluoromethyl)benzamide] | > 40 | ≤ 40 | ≤ 40 | ≤ 40 | > 40 | ≤ 40 | ≤ 40 | > 40 | ≤ 40 | ≤ 40 | > 40 | > 40 | > 40 | > 40 | > 40 | > 40 | > 40 | > 40 | > 40 | > 40 | remaining activity at 1 µM (CLK1): > 40%; remaining activity at 1 µM (C-MER; c-MER): > 40%; remaining activity at 1 µM (STK16): > 40%; remaining activity at 1 µM (WNK2): > 40%; remaining activity at 1 µM (PKG2/PRKG2): > 40%; remaining activity at 1 µM (ALK6/BMPR1B): > 40%; remaining activity at 1 µM (SNRK): > 40%; remaining activity at 1 µM (PDK1/PDPK1): > 40%; remaining activity at 1 µM (COT1/MAP3K8): > 40%; remaining activity at 1 µM (MRCKB/CDC42BPB): > 40%; remaining activity at 1 µM (CDK5/P25): > 40%; remaining activity at 1 µM (SRPK2): > 40%; remaining activity at 1 µM (MST2/STK3): > 40%; remaining activity at 1 µM (CDK9/CYCLIN T1): > 40% |
